Measured values from US20230414654A1, “METHODS OF TREATING COPPER METABOLISM-ASSOCIATED DISEASES OR DISORDERS” (Alexion Pharmaceuticals, Inc., priority 2020, published 2023).
Like-named read-outs stand apart in the source and are kept apart here. Marks after values point to notes of the source that are not given here.

Experiments:
[1] = Mobilization of copper from tissue (Studies 106, 201, 203); settings: Study 106, Study 201 (BC-TTM); Study 203 (SoC)
[2] = cited from earlier work
[3] = in vivo; cited from earlier work
[4] = system: healthy participants
Method: Twenty-four participants were enrolled (12 Japanese and 12 non-Japanese). […] Participants were followed 10 days after dosing within each Dosing Period, and a minimum of 14 days (+2 days) separated the dosing periods. PK and PD concentrations were measured over the next several hours for the first day and once daily for the next 9 days. Therefore, Study 106 permits examination of PK and PD profile changes within hours after drug administration.

[5] = system: participants with WD; settings: for participants considered successfully treated (NCC/NCCcorrected primary endpoint): by Week 24; for participants considered successful (primary endpoint): last assessment of Extension Period
Method: This study was conducted in US and European sites. […] A total of 28 participants were enrolled and treated (10 in Cohort 1 [treatment experienced] and 18 in Cohort 2 [treatment naïve or minimally treated]). One participant was enrolled in Cohort 2 but not treated.
NCC levels within or above the normal reference range at enrollment were required. […] Dosing was individualized, guided by NCC levels (adjusted for molybdenum plasma concentration) and safety data. The primary efficacy endpoint was related to the proportion of successful participants, i.e., the proportion of participants who achieved plasma “free” copper control or improvement from baseline.
Due to small sample size and data variability, the median values for the weighted averages of the doses will be cited throughout.
The primary endpoint in study 201 was the change in NCC/NCCcorrected from baseline to Week 24.
In Study 201, 12-hour dense PK/PD samples for plasma total molybdenum and copper were collected on Day 1, Week 12, and Week 24. Plasma samples for assessing “free” copper were also collected at 0, 4, and 8 hours during those visits and assayed for LBC concentrations. For the purpose of comparison across Studies 106 and 201, FIG. 3 has super-imposed LBC/total copper ratios-time profiles within the 12-hour time window after dosing from both studies.

Compound: NCCNCCNCCN [Trientine, N-[2-(2-aminoethylamino)ethyl]ethane-1,2-diamine]
- Mobilization of Copper from Tissue [1]: No
- Cu-Binding Selectivity [2]: Cu^2+, and other

Compound: CC(C)(S)[C@@H](N)C(=O)O [Penicillamine, (2S)-2-amino-3-methyl-3-sulfanylbutanoic acid]
- Mobilization of Copper from Tissue [1]: No (Study 203)

Compound: [Zn] [Zinc, zinc]
- Mobilization of Copper from Tissue [1]: No (Study 203)
- Route of Copper Elimination [3]: Non-absorbed

Compound: Bis-choline tetrathiomolybdate [BC-TTM]
- Mobilization of Copper from Tissue [1]: Yes (Study 106;
- time of maximum plasma total copper concentration post dose ([4]; 15 mg or 60 mg single dose): 8 to 12 h
- maximum median increase of plasma total copper from baseline ([4]; 8-12 hours post dose): 26-34%
- median plasma LBC as % of pre-dose baseline concentration ([4]; 12-24 hours post dose, combined ethnicity and dose data): 80-90%
- median plasma LBC nadir as % of pre-dose baseline concentration ([4]; 3 hours post dose, combined ethnicity and dose data): 50-70%
- percentage of plasma LBC relative to plasma total copper (AUEC) ([4]; after administration, all participants, both ethnicities and doses pooled): 7%
- time at which median plasma LBC returned to baseline ([4]; after dose): 10 days
- maximum individual plasma LBC concentration ([4]; after single 15 mg dose): 2.79 µM
- maximum individual plasma total copper concentration ([4]; after single 15 mg dose): 23.0 µM
- maximum individual plasma LBC concentration ([4]; after single 60 mg dose): 2.93 µM
- maximum individual plasma total copper concentration ([4]; after single 60 mg dose): 21.7 µM
- dose proportionality of plasma total molybdenum Cmax and AUC ([4]; human, in vivo): less than dose-proportionally
- time to maximum plasma molybdenum (Tmax) ([4]; human, in vivo): 5 h
- delay of maximum plasma total copper after maximum plasma total molybdenum ([4]; in vivo): 3 to 7 h
- plasma molybdenum anticipated to be in the form of TPCs ([4]; in vivo): approximately 96%
- time at which total copper concentrations had returned to predose baseline ([4]; post dose): 240 h
- drop of LTC Ratio (LBC/total copper) from baseline ([5]; Day 1, 4 hours post dose, weighted average dose 30 mg): ~30%
- nadir drop of LTC Ratio compared to Day 1 pre-dose baseline ([5]; Week 24, 4 hours post-dose, weighted average dose 35.8 mg): ~50%
- reduction of mean serum non-ceruloplasmin-bound Cu (NCC) ([5]; Week 24 compared with baseline, 28 patients with WD, monotherapy): 72%
- reduction of pre-dose LTC Ratio compared to Day 1 pre-dose baseline ([5]; Week 24 pre-dose, weighted average dose 35.8 mg): ~30%
- participants considered successfully treated (NCC/NCCcorrected primary endpoint) ([5]; Cohort 1 (treatment experienced)): 90.0%
- participants considered successfully treated (NCC/NCCcorrected primary endpoint) ([5]; Cohort 2 (treatment naïve or minimally treated)): 83.3%
- paradoxical neurological worsening upon treatment initiation ([5]; in vivo): No paradoxical neurological worsening was observed
- patients with reversible liver function test elevations ([5]; in vivo): 39%
- tolerability ([5]; in vivo): generally well-tolerated
- participants considered successful (primary endpoint) ([5]; Cohort 1): 90.0%
- participants considered successful (primary endpoint) ([5]; Cohort 2): 83.3%
- participants considered successful (primary endpoint) ([5]; all participants): 85.7%
- Cu-Binding Selectivity [2]: Cu^+ and Cu^2+*
- Route of Copper Elimination [3]: Biliary/fecal
